Experimental data from patent US9139809B2, “Bacterial vaccines with cell wall-associated ceramide-like glycolipids and uses thereof” (priority 2009, dated 2015).

Tests used:
[1] = test system: tumor and malaria; conditions: mice; cited from earlier work
[2] = test system: serum cytokines; conditions: mice, cited from earlier work
[3] = test system: M. tuberculosis H37Rv; conditions: in vivo
[4] = test system: malarial parasite; conditions: mice, αGalCer as a therapeutic; cited from earlier work
[5] = test system: M. tuberculosis; conditions: αGalCer as a therapeutic; cited from earlier work

| Compound | anti-tumor and anti-malarial activity compared with αGalCer [1] | levels of Th1 cytokines IL-12 and IFNγ ([2]; compared with αGalCer) | improvement of the protective efficacy of BCG, comparison of the two glycolipids [3] | malarial parasite load [4] | serum cytokines after a single injection (IFNγ, IL-12 and IL-4) ([2]; single injection) | survival of M. tuberculosis infected mice [5] |
| --- | --- | --- | --- | --- | --- | --- |
| CCCCCCCCCCCCCCCCCCCCCCCCCC(=O)N[C@@H](CCC1OC(CO)C(O)C(O)C1O)[C@H](O)[C@H](O)CCCCCCCCCCCCCC (stereo partly drawn) [α-C-GalCer, (2S,3S,4R)-1-CH2-(α-galactopyranosyl)-N-hexacosanoyl-2-amino-1,3,4-octadecanetriol] | superior anti-tumor and anti-malarial activity as compared to αGalCer | induces higher levels | superior to αGalCer | – | – | – |
| CCCCCCCCCCCCCCCCCCCCCCCCCC(=O)N[C@@H](CO[C@H]1O[C@H](CO)[C@H](O)[C@H](O)[C@H]1O)[C@H](O)[C@H](O)CCCCCCCCCCCCCC [αGalCer, (2S,3S,4R)-1-O-(α-D-galactopyranosyl)-N-hexacosanoyl-2-amino-1,3,4-octadecanetriol] | – | – | – | reduce malarial parasite load | induces a cytokine storm in the serum | prolong the survival |
